pEC50: −log10 of the molar value. “Also recorded” adds a separate entry of the source.
How the values were obtained:
hTRPA1 [1] = molecular target: T1, hTRPA1 (Homo sapiens, UniProt O75762); test: Evaluation of hTRPA1 action using Ca2+ imaging (Fura-2/AM) in cell lines stably expressing hTRPA1; format: cell-based; settings: for calcium release in hTRPA1 stably expressing cell line: 50 μM, FIG. 2; for activity inhibition by ruthenium red (RR): treatment with cationic channel blocker RR
T1 construct: The hTRPA1-expressing gene (coding region) was cloned; expressed in transfected cells
Method: (§1) The hTRPA1-expressing gene (coding region) was cloned according to the manufacturer's protocol for the pcDNA5/FRT Complete System (Invitrogen). In order to verify whether the hTRPA1 gene was accurately inserted into the vector, sequencing was carried out using the ABI 130 or 310 DNA generatic analyzer (Applied Biosystems), and the constructed vector and Pog44 were transduced into Flin-in 293 cells using Lipofectamine 2000 (Invitrogen). After 24 hours, the cells were optionally treated with 100 μg/ml of hygromycin-B (Invitrogen), following by further culturing for 2-3 weeks. Then, only antibiotic-resistant cells were collected, and used for measuring cellular responses of hTRPA1, followed by repeated culturing. The cells were cultured in Dulbecco's modified Eagle's medium (DMEM) supplemented with 10% fetal bovine serum.
The Ca^2+ imaging was conducted to measure hTRPA1 activation. Fura-2/AM (Molecular Probes, USA) was used as a marker for measuring the change in the intracellular calcium concentration. At 20-26 hours before the analysis, cell lines stably expressing hTRPA1 were dispensed in a 96-well plate. The cells were cultured in a solution added with Fura-2/AM (5 μM) at 27° C. for 30 minutes. The cells were washed with an assay buffer (140 mM NaCl, 10 mM HEPES, 2 mM CaCl2.2H2O, 2 mM EGTA, 1 mM MgCl2.6H2O, 10 mM glucose, and 5 mM KCl), added with 100 μL of the assay buffer, and left at room temperature for 15 minutes. The Fura-2/AM-loaded cells were placed on a microscope, and the fluorescence absorbance was measured between 340 nm and 380 nm. The images were recorded at 3-sec intervals, and the change in the intracellular calcium concentration was analyzed using MetalFluor software (Molecular Devices, Sunnyvale, Calif., USA).

NCI-H716 cells = test: GLP-1 secretion effect in NCI-H716 cells (GLP-1 active ELISA); format: cell-based, human; settings: 1 hour
Description: Glucagon-like peptide-1 (GLP-1), which is the hormone secreted from the gut, is involved in an anti-diabetic action by amplifying glucose-stimulated insulin secretion and suppressing the beta-cell death. GLP-1 is also involved in an anti-obesity action by decreasing the rate of gastric emptying and suppressing the appetite. Therefore, a GLP-1 secreting material can be expected to have anti-diabetic and anti-obesity effects.
The human-derived cell line NCI-H716 cells were purchased from the American Type Culture Collection (ATCC, Manassas, Va.). This cell line corresponds to suspension cells isolated from the large-intestinal Adenocarcinoma of an adult, and has been known as a cell line that mainly secrets GLP-1. For the maintenance of proliferation and culture of the cell line, the cells were cultured in RPMI 1640 medium supplemented with 10% fetal bovine serum (FBS), 2 mM L-glutamine, 100 IU/ml penicillin, and 100 μg/ml streptomycin, and for the adherence and differentiation of cells, the Matrigel matrix (Becton Dickinson and Co., Bedford, Mass.) was coated on plates and the cells were cultured in high-glucose DMEM supplemented with 10% FBS, 2 mm L-glutamine, 100 IU/ml penicillin, and 100 μg/ml streptomycin.
The NCI-H716 cell line was cultured at 2×10^5 cells/mL in a 96-well culture plate coated with Matrigel for 3 days. On the day of the experiment, the cells were washed with 1× phosphated buffered saline (PBS). For the control group, Krebs-Ringer bicarbonate buffer (KRB, 128.8 mmol/l NaCl, 4.8 mmol/l KCl, 1.2 mmol/l KH2PO4, 1.2 mmol/l MgSO4, 2.5 mmol/l CaCl2, 5 mmol/l NaHCO3, and 10 mmol/l HEPES, 0.2% BSA, pH 7.4) was used. For the analysis, the samples of different concentrations were added thereto, followed by incubation at 37° C. for 1 hour. After the incubation, the supernatant was taken (100 μL) for GLP-1 analysis, and analyzed by using the GLP-1 active ELISA kit (EGLP-35K, Millipore) according to the manufacturer's manual. The concentration of GLP-1 was calculated based on the supplied GLP-1 standard material (pmol).

[2] = Sensory test for pungent flavor; format: in vivo; settings: 1 μM solution
Method: The sensory test was conducted for the pungent flavor due to coniferyl alcohol. A solution of 1 μM coniferyl alcohol was used, and the sensitivity of the pungent taste was marked in a 15-point scale (n=6).

hTRPA1 [3] = molecular target: T1, hTRPA1; test: Measurement of intracellular Ca2+ concentration using cell-based analysis (FlexStation, Fluo-4-AM)
Method: as §1
The intercellular Ca^2+ concentration was measured by using FlexStation™ (Molecular Devices, Sunnyvale, Calif., USA). Cells were dispensed at 24 hours before the analysis, and treated with 5 μM Fluo-4-AM (Molecular Probes, Eugene, Oreg., USA) as a marker for measuring the change in the intracellular calcium concentration, followed by reaction at 27° C. for 30 minutes. After that, the cells were washed with an assay buffer (140 mM NaCl, 10 mM HEPES, 2 mM CaCl22H2O, 2 mM EGTA, 1 mM MgCl26H2o, 10 mM glucose, and 5 mM KCl), added with 100 μL of the assay buffer, and left at room temperature for 15 minutes. Then, each of extracts and compositions was treated and used to measure fluorescence absorbance at 486 nm (F486) and 516 nm (F516). The change in intercellular calcium concentration was represented as A relative fluorescent unit (RFU), and was analyzed by using the Softmax software (Molecular devices, USA).

[4] = Lacrimation test (solution sprayed onto eyes of participants); format: in vivo; settings: 1 μM solution sprayed onto eyes
Method: The lacrimation test was conducted on the coniferyl alcohol. A solution of 1 μM coniferyl alcohol was used, and experiment participants were asked to write down their feeling when the solution was sprayed onto their eyes.

T1 sequence (O75762 whole entry): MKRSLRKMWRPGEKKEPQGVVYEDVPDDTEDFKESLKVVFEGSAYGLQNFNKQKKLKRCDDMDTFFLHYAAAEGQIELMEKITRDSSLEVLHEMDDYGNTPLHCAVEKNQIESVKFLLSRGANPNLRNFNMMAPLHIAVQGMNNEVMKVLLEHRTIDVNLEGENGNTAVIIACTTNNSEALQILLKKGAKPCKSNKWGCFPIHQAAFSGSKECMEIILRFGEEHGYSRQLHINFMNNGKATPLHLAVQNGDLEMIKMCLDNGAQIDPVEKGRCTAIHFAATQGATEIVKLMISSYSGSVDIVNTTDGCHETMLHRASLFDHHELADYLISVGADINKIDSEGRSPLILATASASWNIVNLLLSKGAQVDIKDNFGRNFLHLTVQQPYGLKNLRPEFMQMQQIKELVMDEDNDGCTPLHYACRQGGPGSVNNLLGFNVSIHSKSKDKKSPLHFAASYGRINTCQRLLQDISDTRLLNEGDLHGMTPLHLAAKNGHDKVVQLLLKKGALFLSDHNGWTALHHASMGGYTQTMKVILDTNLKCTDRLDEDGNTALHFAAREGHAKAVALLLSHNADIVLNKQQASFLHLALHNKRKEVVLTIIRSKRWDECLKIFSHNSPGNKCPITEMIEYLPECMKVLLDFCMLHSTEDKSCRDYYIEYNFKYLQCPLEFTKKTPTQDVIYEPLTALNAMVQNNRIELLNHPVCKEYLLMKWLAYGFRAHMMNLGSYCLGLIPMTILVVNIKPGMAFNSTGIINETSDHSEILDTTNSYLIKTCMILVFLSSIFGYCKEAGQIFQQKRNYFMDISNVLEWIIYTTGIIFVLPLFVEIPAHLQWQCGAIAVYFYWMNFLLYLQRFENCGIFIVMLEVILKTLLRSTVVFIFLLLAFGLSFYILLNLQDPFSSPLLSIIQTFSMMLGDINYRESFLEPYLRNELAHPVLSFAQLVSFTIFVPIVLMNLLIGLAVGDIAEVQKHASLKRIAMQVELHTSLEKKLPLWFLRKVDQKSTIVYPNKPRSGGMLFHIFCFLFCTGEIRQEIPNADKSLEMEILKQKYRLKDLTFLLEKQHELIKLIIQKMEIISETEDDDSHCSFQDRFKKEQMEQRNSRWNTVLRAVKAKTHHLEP

Row | pEC50 (hTRPA1 [3]; FIG. 29) | Ca2+ response inhibited by cationic channel blocker RR (hTRPA1 [3]; RR 30 μM) | SMILES | calcium response / hTRPA1 action in hTRPA1-expressed cells (Ca2+ imaging) (hTRPA1 [1]) | calcium release in hTRPA1 stably expressing cell line (hTRPA1 [1]) | activity inhibition by HC-030031 (hTRPA1 [1]; treatment with TRPA1 antagonist HC-030031) | activity inhibition by ruthenium red (RR) (hTRPA1 [1]) | GLP-1 secretion as compared with the untreated control group (NCI-H716 cells; 500 μM) | taste description in sensory test [2] | intensity of pungent tastes (spicy, tingle, and tangy tastes) ([2]; 15-point scale, n=6) | Ca2+ response inhibited by TRPA1 antagonist HC-030031 (hTRPA1 [3]; HC-030031 100 μM) | GLP-1 secretion as compared with the untreated control group (NCI-H716 cells; 3 μM) | GLP-1 secretion as compared with the untreated control group (NCI-H716 cells; 10 μM or higher) | ocular tears or irritation due to spray [4]
1 | – | – | C=CCN=C=S [AITC, allyl isothiocyanate] | all cells were activated | calcium was released | not inhibited | most activities were inhibited | 3.9 times | – | – | – | – | – | –
2 | – | – | O=CC=Cc1ccccc1 [CALD, cinnamaldehyde] | all cells were activated | calcium was released | – | most activities were inhibited | – | – | – | – | – | – | –
3 | – | – | O=C(/C=C/c1ccc(O)c(O)c1)O[C@@H]1C[C@](O)(C(=O)O)C[C@@H](O)[C@H]1O [chlorogenic acid] | no effects | – | – | – | – | – | – | – | – | – | –
4 | 3.18 | inhibited | COc1cc(/C=C/CO)ccc1O [coniferyl alcohol, Coniferyl alcohol] | specifically acted on hTRPA1; also recorded: increased the intercellular Ca^2+ influx in a time-dependent manner | – | – | completely blocked | – | the remaining taste was stronger than the first taste and the tongue burns or has a pain | 11.83±1.6 | inhibited; also recorded: significantly reduced | 3 times | ≥ 4 times | ocular pain (tingling, stinging, and dizziness) was observed
